One series deals with Diabrotica balteata. Description: Diabrotica balteata (corn root worm), sprayed maize sprouts, L2 larvae. The settings on record: 96 h, application rate of 200 ppm, 4 days after infestation, in comparison to untreated samples, read-out: effect in at least one of the two categories (mortality or growth inhibition). In kind it is in vivo. How it is done:
Example B3: Diabrotica balteata (Corn Root Worm)
Maize sprouts, placed on an agar layer in 24-well microtiter plates were treated with aqueous test solutions prepared from 10,000 ppm DMSO stock solutions by spraying. After drying, the plates were infested with L2 larvae (6 to 10 per well). The samples were assessed for mortality and growth inhibition in comparison to untreated samples 4 days after infestation.

The subject of a further series is Plutella xylostella. Description: Plutella xylostella (diamond back moth), treated artificial diet, L2 larvae. The following applies: 120 h, application rate of 200 ppm, 5 days after infestation, in comparison to untreated samples, read-out: effect in at least one of the two categories (mortality or growth inhibition). In kind it is in vivo. Here is the method: Example B2: Plutella xylostella (Diamond Back Moth)
24-well microtiter plates with artificial diet were treated with aqueous test solutions prepared from 10,000 ppm DMSO stock solutions by pipetting. After drying, the plates were infested with L2 larvae (10 to 15 per well). The samples were assessed for mortality and growth inhibition in comparison to untreated samples 5 days after infestation.

The next series concerns Spodoptera littoralis. As to the kind of experiment: Spodoptera littoralis (Egyptian cotton leaf worm), sprayed cotton leaf discs, L1 larvae. In kind it is in vivo. The settings on record: foliar, 72 h, application rate of 200 ppm, 3 days after infestation, in comparison to untreated samples, read-out: control (at least one of mortality, anti-feedant effect, growth inhibition). How it is done: Example B1: Spodoptera littoralis (Egyptian Cotton Leaf Worm)
Cotton leaf discs were placed on agar in 24-well microtiter plates and sprayed with aqueous test solutions prepared from 10,000 ppm DMSO stock solutions. After drying, the leaf discs were infested with five L1 larvae. The samples were assessed for mortality, anti-feedant effect, and growth inhibition in comparison to untreated samples 3 days after infestation. Control of Spodoptera littoralis by a test sample is when at least one of mortality, anti-feedant effect, and growth inhibition is higher than the untreated sample.

Regarding `Cc1cccc(C)c1NC(=S)N/N=C/c1ccc2cn(-c3ccc(OC(F)(F)F)cc3)nc2c1` [Compound P1, N-(2,6-dimethylphenyl)-2-((2-(4-(trifluoromethoxy)phenyl)-2H-indazol-6-yl)methylene)hydrazinecarbothioamide], the percent effect (mortality or growth inhibition) at 200 ppm in the series with Diabrotica balteata and in the series with Plutella xylostella was ≥ 80% each time. In the series on Spodoptera littoralis, the percent control (mortality, anti-feedant effect or growth inhibition) at 200 ppm is ≥ 80%. For the compound `CC(C)c1ccccc1NC(=S)N/N=C/c1ccc2nc(Oc3ccc(OC(F)(F)F)cc3)ccc2c1` [Compound P2, N-(2-isopropylphenyl)-2-((2-(4-(trifluoromethoxy)phenoxy)quinolin-6-yl)methylene)hydrazinecarbothioamide], the percent effect (mortality or growth inhibition) at 200 ppm with Diabrotica balteata and in the series on Plutella xylostella was ≥ 80% throughout. In the series on Spodoptera littoralis, the percent control (mortality, anti-feedant effect or growth inhibition) at 200 ppm was ≥ 80%.

Regarding `Cc1cccc(C)c1NC(=S)N/N=C/c1ccc2c(c1)C(=O)N(c1ccc(OC(F)(F)F)cc1)C2=O` [Compound P4, 1-(2,6-dimethylphenyl)-3-[(E)-[1,3-dioxo-2-[4-(trifluoromethoxy)phenyl]isoindolin-5-yl]methyleneamino]thiourea], the percent effect (mortality or growth inhibition) at 200 ppm in the series with Plutella xylostella is ≥ 80%. `CC(C)c1ccccc1NC(=O)N/N=C/c1ccc2c(c1)C(=O)N(c1ccc(OC(F)(F)F)cc1)C2=O` [Compound P6] registered a melting point of 239 to 240 °C.

`O=C1c2ccc(/C=N/NC(=S)Nc3ccccc3C(F)(F)F)cc2C(=O)N1c1ccc(OC(F)(F)F)cc1` [Compound P11] came in with a melting point of 235 to 236 °C.

As for `CC(C)c1ccccc1NC(=S)N/N=C/c1ccc2c(c1)C(=O)N(c1ccc(OC(F)(F)F)cc1)C2=O` [Compound P12], the percent effect (mortality or growth inhibition) at 200 ppm in the series on Plutella xylostella was ≥ 80%. For the compound `Cc1cccc(C)c1NC(=S)N/N=C/c1ccc2sc(-c3ccc(OC(F)(F)F)cc3)nc2c1` [Compound P13, 1-(2,6-dimethylphenyl)-3-[(E)-[2-[4-(trifluoromethoxy)phenyl]-1,3-benzothiazol-5-yl]methyleneamino]thiourea], the percent effect (mortality or growth inhibition) at 200 ppm in the series on Diabrotica balteata and in the series on Plutella xylostella was ≥ 80% each time.

Turning to `CC(C)c1ccccc1NC(=S)N/N=C/c1ccc2sc(-c3ccc(OC(F)(F)F)cc3)nc2c1` [Compound P14], the percent effect (mortality or growth inhibition) at 200 ppm in the series on Diabrotica balteata and in the series on Plutella xylostella was ≥ 80% in each case. Consider `CC(C)c1ccccc1NC(=O)N/N=C/c1ccc2sc(-c3ccc(OC(F)(F)F)cc3)nc2c1` [Compound P15], for which the percent effect (mortality or growth inhibition) at 200 ppm in the series on Diabrotica balteata and in the series with Plutella xylostella was ≥ 80% each time. On to `Cc1cccc(C)c1NC(=S)N/N=C/c1ccc2nc(-c3ccc(OC(F)(F)F)cc3)cn2c1` [Compound P17, 1-(2,6-dimethylphenyl)-3-[(E)-[2-[4-(trifluoromethoxy)phenyl]imidazo[1,2-a]pyridin-6-yl]methyleneamino]thiourea], for which the percent effect (mortality or growth inhibition) at 200 ppm in the series with Diabrotica balteata and in the series on Plutella xylostella was ≥ 80% each time. The percent control (mortality, anti-feedant effect or growth inhibition) at 200 ppm in the series with Spodoptera littoralis was ≥ 80%.

As to `Cc1cccc(C)c1NC(=O)N/N=C/c1ccc2nc(-c3ccc(OC(F)(F)F)cc3)cn2c1` [Compound P18, 1-(2,6-dimethylphenyl)-3-[(E)-[2-[4-(trifluoromethoxy)phenyl]imidazo[1,2-a]pyridin-6-yl]methyleneamino]urea], the percent effect (mortality or growth inhibition) at 200 ppm with Plutella xylostella is ≥ 80%. Besides, the percent control (mortality, anti-feedant effect or growth inhibition) at 200 ppm in the series on Spodoptera littoralis is ≥ 80%. As for `CC(C)c1ccccc1NC(=O)N/N=C/c1ccc2nc(-c3ccc(OC(F)(F)F)cc3)cn2c1` [Compound P19], in the series on Plutella xylostella, the percent effect (mortality or growth inhibition) at 200 ppm was ≥ 80%. In the series on Spodoptera littoralis, the percent control (mortality, anti-feedant effect or growth inhibition) at 200 ppm is ≥ 80%. In the case of `Cc1cccc(C)c1NC(=S)N/N=C/c1ccc2c(cnn2-c2ccc(OC(F)(F)F)cc2)c1` [Compound P21, 1-(2,6-dimethylphenyl)-3-[(E)-[1-[4-(trifluoromethoxy)phenyl]indazol-5-yl]methyleneamino]thiourea], in the series with Diabrotica balteata, the percent effect (mortality or growth inhibition) at 200 ppm was ≥ 80%. Besides, the percent control (mortality, anti-feedant effect or growth inhibition) at 200 ppm with Spodoptera littoralis was ≥ 80%.

As for `CC(C)c1ccccc1NC(=S)N/N=C/c1ccc2c(cnn2-c2ccc(OC(F)(F)F)cc2)c1` [Compound P22], the percent effect (mortality or growth inhibition) at 200 ppm in the series with Plutella xylostella was ≥ 80%. `CC(C)c1ccccc1NC(=O)N/N=C/c1ccc2c(cnn2-c2ccc(OC(F)(F)F)cc2)c1` [Compound P23] displayed a melting point of 207 to 213 °C. Same read-out and setting: under `Cc1cccc(C)c1NC(=O)N/N=C/c1ccc2c(cnn2-c2ccc(OC(F)(F)F)cc2)c1` [Compound P24, 1-(2,6-dimethylphenyl)-3-[(E)-[1-[4-(trifluoromethoxy)phenyl]indazol-5-yl]methyleneamino]urea] stands 227 to 233 °C.

In turn, `Cc1cccc(C)c1NC(=S)N/N=C/c1ccc2nn(-c3ccc(OC(F)(F)F)cc3)cc2c1` [Compound P25, 1-(2,6-dimethylphenyl)-3-[(E)-[2-[4-(trifluoromethoxy)phenyl]indazol-5-yl]methyleneamino]thiourea] yielded a melting point of 225 to 234 °C.

Consider `Cc1cccc(C)c1NC(=O)N/N=C/c1ccc2c(c1)nc(-c1ccc(OC(F)(F)F)cc1)n2C` [Compound P27, 1-(2,6-dimethylphenyl)-3-[(E)-[1-methyl-2-[4-(trifluoromethoxy)phenyl]benzimidazol-5-yl]methyleneamino]urea], for which the percent control (mortality, anti-feedant effect or growth inhibition) at 200 ppm in the series on Spodoptera littoralis is ≥ 80%.

For `Cc1cccc(C)c1NC(=O)N/N=C/c1ccc2nc(-c3ccc(OC(F)(F)F)cc3)n(C)c2c1` [Compound P28, 1-(2,6-dimethylphenyl)-3-[(E)-[3-methyl-2-[4-(trifluoromethoxy)phenyl]benzimidazol-5-yl]methyleneamino]urea], the melting point was in the range of 218 to 219 °C.

In the case of `Cc1cccc(C)c1NC(=S)N/N=C/c1ccc2c(c1)nc(-c1ccc(OC(F)(F)F)cc1)n2C` [Compound P29], the percent effect (mortality or growth inhibition) at 200 ppm in the series on Diabrotica balteata and with Plutella xylostella was ≥ 80% each time. The percent control (mortality, anti-feedant effect or growth inhibition) at 200 ppm in the series on Spodoptera littoralis was ≥ 80%. Consider `Cc1cccc(C)c1NC(=S)N/N=C/c1ccc2nc(-c3ccc(OC(F)(F)F)cc3)n(C)c2c1` [Compound P30], for which, in the series on Plutella xylostella, the percent effect (mortality or growth inhibition) at 200 ppm is ≥ 80%. In the case of `CC(C)c1ccccc1NC(=O)N/N=C/c1ccc2c(c1)nc(-c1ccc(OC(F)(F)F)cc1)n2C` [Compound P31], the percent effect (mortality or growth inhibition) at 200 ppm in the series with Plutella xylostella is ≥ 80%. Further, in the series with Spodoptera littoralis, the percent control (mortality, anti-feedant effect or growth inhibition) at 200 ppm is ≥ 80%. Regarding `CC(C)c1ccccc1NC(=O)N/N=C/c1ccc2nc(-c3ccc(OC(F)(F)F)cc3)n(C)c2c1` [Compound P32], the percent effect (mortality or growth inhibition) at 200 ppm in the series on Plutella xylostella was ≥ 80%. For the same compound, the percent control (mortality, anti-feedant effect or growth inhibition) at 200 ppm in the series with Spodoptera littoralis was ≥ 80%. For `CC(C)c1ccccc1NC(=S)N/N=C/c1ccc2c(c1)nc(-c1ccc(OC(F)(F)F)cc1)n2C` [Compound P33], the percent effect (mortality or growth inhibition) at 200 ppm in the series with Plutella xylostella is ≥ 80%. Further, in the series on Spodoptera littoralis, the percent control (mortality, anti-feedant effect or growth inhibition) at 200 ppm was ≥ 80%. As to `CC(C)c1ccccc1NC(=S)N/N=C/c1ccc2nc(-c3ccc(OC(F)(F)F)cc3)n(C)c2c1` [Compound P34], in the series on Plutella xylostella, the percent effect (mortality or growth inhibition) at 200 ppm was ≥ 80%. Also, the percent control (mortality, anti-feedant effect or growth inhibition) at 200 ppm in the series with Spodoptera littoralis is ≥ 80%. As for `CC(C)c1ccccc1NC(=O)N/N=C/c1ccc2cn(-c3ccc(OC(F)(F)F)cc3)nc2c1` [Compound P35], the percent effect (mortality or growth inhibition) at 200 ppm with Diabrotica balteata and with Plutella xylostella was ≥ 80% each time. The percent control (mortality, anti-feedant effect or growth inhibition) at 200 ppm in the series with Spodoptera littoralis was ≥ 80%.

Turning to `CC(C)c1ccccc1NC(=S)N/N=C/c1ccc2cn(-c3ccc(OC(F)(F)F)cc3)nc2c1` [Compound P36], the percent effect (mortality or growth inhibition) at 200 ppm in the series on Diabrotica balteata and in the series with Plutella xylostella was ≥ 80% in each case. For the same compound, in the series with Spodoptera littoralis, the percent control (mortality, anti-feedant effect or growth inhibition) at 200 ppm is ≥ 80%.

Broadly, the melting point is the temperature, or range, at which the solid turns liquid.

(Values after patent publication US10721933B2, “Pesticidally active semi-carbazones and thiosemicarbazones derivatives” (Syngenta Participations AG, priority 2015, dated 2020).)
